According to patent US20100179058A1, “Azolylmethyloxiranes, Their Use for Controlling Phytopathogenic Fungi, and Compositions Comprising Them” (BASF SE, priority 2006, published 2010):

What was measured:
Septoria tritici = test: Activity against the Septoria leaf blotch pathogen Septoria tritici in the microtiter test (Septtr); type: cell-based; settings: 125 ppm active compound, microtiter plate, 405 nm, day 7 after inoculation
Description: (§1) The active compounds were formulated separately as a stock solution having a concentration of 1 ppm in DMSO. The stock solution is pipetted onto a microtiter plate (MTP) and diluted to the stated active compound concentration using a malt-based aqueous nutrient medium for fungi. An aqueous spore suspension of Septoria tritici was then added. The plates were placed in a water vapor-saturated chamber at temperatures of 18° C. Using an absorbtion photometer, the MTPs were measured at 405 nm on day 7 after the inoculation. The measured parameters were compared to the growth of the active compound-free control variant and the fungus- and active compound-free blank value to determine the relative growth in % of the pathogens in the individual active compounds.

Alternaria solani [1] = test: Activity against Alternaria solani early blight pathogen in the microtiter test (Alteso); type: cell-based; settings: 125 ppm active compound, microtiter plate, 405 nm, day 7 after inoculation
Description: as §1, with “Alternaria solani” for “Septoria tritici”

Alternaria solani [2] = test: Activity against early blight of tomato caused by Alternaria solani (Alteso P1), greenhouse; type: in vivo; settings: tomato plants, comparative experiment, untreated 90
Description: The active compounds were prepared separately or jointly as a stock solution comprising 25 mg of active compound which was made up to 10 ml using a mixture of acetone and/or DMSO and the emulsifier Wettol EM 31 (wetting agent having emulsifying and dispersing action based on ethoxylated alkylphenol) in a volume ratio of solvent/emulsifier of 99:1. The mixture was then made up to 100 ml with water. This stock solution was diluted with the solvent/emulsifier/water mixture described to give the concentration of active compound stated below. Leaves of potted tomato plants were sprayed to runoff point with an aqueous suspension having the active compound concentration stated below. The next day, the leaves were inoculated with an aqueous spore suspension of Alternaria solani in a 2% strength biomalt solution. The plants were then placed in a water vapor-saturated chamber at temperatures between 20 and 22° C. After 5 days, the disease on the untreated but infected control plants had developed to such an extent that the infection could be determined visually in %. […]

Botrytis cinerea = test: Activity against gray mold on bell pepper leaves caused by Botrytis cinerea, 1 day protective application (Botrci P1), greenhouse; type: in vivo; settings: bell pepper seedlings, comparative experiment, untreated 100
Description: The active compounds were prepared separately or jointly as a stock solution comprising 25 mg of active compound which was made up to 10 ml using a mixture of acetone and/or DMSO and the emulsifier Wettol EM 31 (wetting agent having emulsifying and dispersing action based on ethoxylated alkylphenol) in a volume ratio of solvent/emulsifier of 99:1. The mixture was then made up to 100 ml with water. This stock solution was diluted with the solvent/emulsifier/water mixture described to give the concentration of active compound stated below. Bell pepper seedlings were, after 2-3 leaves were well developed, sprayed to runoff point with an aqueous suspension having the active compound concentration stated below. The next day, the treated plants were inoculated with a spore suspension of Botrytis cinerea in a 2% strength biomalt solution. The test plants were then placed in a dark climatized chamber at 22 to 24° C., and high atmospheric humidity. After 5 days, the extent of the fungal infection on the leaves could be determined visually in %.

| SMILES | growth (relative growth in % of the pathogens) (Septoria tritici) [%] | growth (relative growth in % of the pathogens) (Alternaria solani [1]) [%] | Infection in % at 63 ppm for Alteso P1 (Alternaria solani [2]) [%] | Infection in % at 63 ppm for Botrci P1 (Botrytis cinerea) [%] |
| --- | --- | --- | --- | --- |
| Cc1cccc(C2OC2(Cn2cncn2)c2ccc(F)cc2F)c1 (stereo not drawn) [8.8] | 0 | 0 | – | – |
| Fc1ccc(C2(Cn3cncn3)OC2c2ccccc2Cl)c(F)c1 (racemic) [8.12] | – | – | 10 | 30 |
| Fc1ccccc1C1(Cn2cncn2)OC1c1ccccc1Cl (stereo not drawn) [Comp. No. 6 of EP-A 0196038, reference compound] | – | – | 90 | 100 |
